Experimental data from patent publication US6491951B1, “Soluble compositions of toremifene” (Orion Corporation, priority 1998, dated 2002).

What was measured:
[1] = background statement; cited from earlier work
[2] = Dissolving toremifene base in aqueous compositions with a solubility enhancing acid; type: physicochemical
Description: The compositions of the invention can be prepared e.g. by mixing an amount of a solubility enhancing acid of the invention and purified water, adding thereafter toremifene base or a pharmaceutically acceptable salt thereof and agitating the mixture. pH may be adjusted with a water solution of corresponding acid salt or e.g. sodium hydroxide. The solubility enhancing agent is preferably used in molar excess with respect to toremifene or a pharmaceutically acceptable salt thereof. More preferably, the molar excess is at least about 1.5 fold, and most preferably at least about 2 fold, e.g. from about 2 to about 100 fold, typically from about 2 to about 10 fold.
The experiments also compare the effect of solubility enhancing agents of the invention to other acids such as hydrochloric acid, gluconic acid or citric acid.
Glacial acetic acid and purified water were mixed, toremifene base was added and dissolved. pH of the solution was about 4.
Lactic acid (85% water solution) and purified water were mixed, toremifene base was added and dissolved.
Formic acid and purified water were mixed, toremifene base was added and dissolved.
Toremifene base was dissolved in methanesulfonic acid, then purified water was added.
Lactic acid (85% water solution) and purified water were mixed, toremifene base was added and dissolved. pH was adjusted to about 5 by sodium lactate (50% water solution).
Manufactured as above but pH was adjusted to about 5 with sodium hydroxide.
Hydrochloric acid and purified water were mixed, toremifene base was added. Toremifene was not dissolved.
Sodium gluconate, concentrated hydrochloric acid and purified water were mixed, toremifene base was added. Toremifene was not dissolved.
Toremifene base and 30% water solution of citric acid were mixed together and ethanol was added gradually. Toremifene was not dissolved.

pKa value of toremifene = type: physicochemical
[3] = Water solubility of toremifene and its salts; type: physicochemical; details: compared with toremifene citrate

| Compound | Solubility in water [1] | Dissolution of toremifene base ([2]; Example 1: 18.4% toremifene base, glacial acetic acid 9.0%, purified water 72.6%, pH about 4) | Toremifene base content of the aqueous solution (by weight of the composition) ([2]; Example 1: glacial acetic acid 9.0%, purified water 72.6%, pH of the solution about 4) [%] | Dissolution of toremifene base ([2]; Example 2: 52.6% toremifene base, lactic acid (85%) 24.0%, purified water 23.4%) | Toremifene base content of the aqueous solution (by weight of the composition) ([2]; Example 2: lactic acid (85%) 24.0%, purified water 23.4%) [%] | Dissolution of toremifene base ([2]; Example 3: 8.2% toremifene base, formic acid 1.6%, purified water 90.2%) | Toremifene base content of the aqueous solution (by weight of the composition) ([2]; Example 3: formic acid 1.6%, purified water 90.2%) [%] | Dissolution of toremifene base ([2]; Example 4: 16.7% toremifene base dissolved in methanesulfonic acid 66.6%, then purified water 16.7% added) | Toremifene base content of the aqueous solution (by weight of the composition) ([2]; Example 4: methanesulfonic acid 66.6%, purified water 16.7%) [%] | Dissolution of toremifene base ([2]; Example 5: 3.7% toremifene base, lactic acid (85%) 1.7%, sodium lactate (50%) 4.4%, purified water 90.2%, pH about 5) | Toremifene base content of the aqueous solution (by weight of the composition) ([2]; Example 5: lactic acid (85%) 1.7%, sodium lactate (50%) 4.4%, purified water 90.2%, pH about 5) [%] | Toremifene base content of the aqueous solution (by weight of the composition) ([2]; Example 6: lactic acid (85%) 18.2%, sodium hydroxide 2 N 27.3%, purified water 18.2%, pH about 5) [%] | Dissolution of toremifene base ([2]; Example 7 (reference): 9.1% toremifene base, hydrochloric acid 1 N 31.8%, purified water 59.1%) | Dissolution of toremifene base ([2]; Example 8 (reference): 1.0% toremifene base, sodium gluconate 1.0%, concentrated hydrochloric acid 1.0%, purified water 97.0%) | Dissolution of toremifene base ([2]; Example 9 (reference): 1.0% toremifene base, citric acid (30%) 10.3%, ethanol 88.7%) | Concentration of toremifene base solutions that can be prepared ([2]; two fold molar excess of lactic acid and purified water) | Concentration of toremifene base solutions that can be prepared ([2]; two fold molar excess of lactic acid, pH adjusted to about 5 with sodium hydroxide) | pKa (pKa value of toremifene) | Solubility in distilled water relative to toremifene citrate [3] |
| --- | --- | --- | --- | --- | --- | --- | --- | --- | --- | --- | --- | --- | --- | --- | --- | --- | --- | --- | --- |
| CN(C)CCOc1ccc(/C(=C(/CCCl)c2ccccc2)c2ccccc2)cc1 [Toremifene base, toremifene] | poorly soluble in water | dissolved | 18.4 | dissolved | 52.6 | dissolved | 8.2 | A clear solution was obtained | 16.7 | dissolved | 3.7 | 36.3 | not dissolved | not dissolved | not dissolved | about 50 w-% | about 36 w-% | 8 |  |
| toremifene mesylate |  |  |  |  |  |  |  |  |  |  |  |  |  |  |  |  |  |  | about 70 times higher |
